The record followed here is patent publication US20050101783A1, “N-(heterocycle-methyl)alkylamine derivative, process for producing the same, and bactericide” (priority 2000, published 2005).

Assay [1] relates to Venturia inaequalis. As to the kind of experiment: Antibacterial test to various phytopathogen, PDA plate culture, suppression of mold elongation. The format is cell-based. The settings on record: final concentration 100 mg/l, 1 to 3 days; for inhibition at 100 µg/mL: Venturia inaequalis, read-out: Inhibition Rate of Growth (suppression rate of the mold elongation, 5-step grade) V.i. The procedure:
(§1) (Antibacterial Test to Various Phytopathogen)
(§2) In the test examples, a test was performed on the antibacterial of the compounds according to the present invention to various phytopathogenic molds in the methods later described.
(§3) The compounds of 10 mg were each weighed and they were each dissolved in dimethylsulfoxide of 1 ml. The solution of 0.6 ml was added to PDA culture medium (potato-dextrose-agar culture medium) of 60 ml at about 60° C, the solutions were well mixed in an Erlenmeyer flask of 100 ml, and the solution was poured into a Schale and was solidified therein to prepare a plate culture containing the compound according to the present invention of final concentration of 100 mg/l.
(§4) On the other hand, the sample molds on the plate cultured beforehand were punched by a cork borer of diameter of 4 mm, and they were inoculated on the plate culture containing the aforementioned chemical material. After the inoculation, the molds were inoculated at the appropriate growth temperatures of each mold (for the appropriate growth temperatures, for example, the Reference, LIST OF CULTURE 1996 MICROORGANISM 10th edition published by Institute for Fermentation can be referred to.) for 1 to 3 days, the growth rates of the molds were evaluated by measuring the diameter of a colony. The growth rate of the mold thus obtained on the plate culture containing the chemical material is compared with the growth rate of the mold in the non-addition area of the chemical material to find the suppression rate of the mold elongation by the following formula 3. R=100 (dc−dt)/dc (Formula 3) [wherein, R is the suppression rate of the mold elongation (%), dc is the diameter of a colony on an untreated plate and dt is the diameter of a colony on a chemical-treated plate, respectively.]
(§5) • 5: Mold whose suppression rate of the mold elongation is • 90% or higher • 4: Mold whose suppression rate of the mold elongation is less than 90% and 70% or higher • 3: Mold whose suppression rate of the mold elongation is less than 70% and 40% or higher • 2: Mold whose suppression rate of the mold elongation is less than 40% and 20% or higher • 1: Mold whose suppression rate of the mold elongation is less than 20%
V. i.: Venturia inaequalis

Assay [2] deals with cucumber powdery mildew. Nature of the assay: Preventive effect of cucumber powdery mildew (wettable powder sprayed on potted cucumber, preventive value). The assay is classed as in vivo. The note with it: wettable powder suspended at 100 mg/l, sprayed on potted cucumber at 100 l/10 a; morbidity investigated 9th to 14th day after inoculation. The method, then: (Preventive Effect of Cucumber Powdery Mildew)
The wettable powders obtained by using each compound were diluted with water and were suspended at a predetermined concentration (100 mg/l) and the solution was sprayed over the first to second leaf stage-cucumber (variety: “Sagamihanpakufushinari”) cultivated by using a square plastic pot (size: 6.4 cm×6.4 cm) at a rate of 100 1/10 a.
After the sprayed leaves were air-dried, the spore was inoculated over the aforementioned air-dried leaves from the contracted leaves with a brush, and the contraction was performed in a glass greenhouse (temperature: 20 to 24° C. and relative humidity: 20 to 70 RH). The morbidity rate was investigated based on the same investigation standard as that in the preventive effect test of the cucumber gray mold on 9th to 14th day after the inoculation, and the preventive value was calculated according to the aforementioned formula 2.

Assay [3] has as its system cucumber gray mold. Nature of the assay: Preventive effect test of cucumber gray mold (wettable powder sprayed on potted cucumber, preventive value). The format is in vivo. The note with it: wettable powder suspended at 250 mg/l, sprayed on potted cucumber at 100 l/10 a; morbidity investigated 4th to 6th day after inoculation. The method, then:
(Preventive Effect Test of Cucumber Gray Mold)
The wettable powders obtained by using each compound were diluted with water and were suspended at a predetermined concentration (250 mg/l) and the solution was sprayed over the first to second leaf stage-cucumber (variety: “Sagamihanpakufushinari”) cultivated by using a square plastic pot (size: 6.4 cm×6.4 cm) at a rate of 100 1/10 a.
After the sprayed leaves were air-dried, a paper disk where the solution of the spore of the gray mold suspended with water was impregnated was put on the aforementioned sprayed leaves, and the leaves were contracted in a glass greenhouse (temperature: 20 to 24° C. and relative humidity: 20 to 70 RH). The morbidity rate was investigated based on the following investigation standard on 4th to 6th day after the inoculation and the preventive value was calculated according to the following formula 2.

The subject of assay [4] is Microdohium nivale. Nature of the assay: Antibacterial test to various phytopathogen, PDA plate culture, suppression of mold elongation. The assay is classed as cell-based. The settings on record: final concentration 100 mg/l, 1 to 3 days; for inhibition at 100 µg/mL: read-out: Inhibition Rate of Growth (suppression rate of the mold elongation, 5-step grade) M.n. The method, then: as §1, §2, §3, §4, §5
(§6) In addition, the meanings of the abbreviated letters in Table 22 are as follows: • B. c.; Botrytis cinerea • P. h.; Pseudocercosporella herpotrichoides • M. n.; Microdohium nivale • L. n.; Leptosphaeria nodorum

In assay [5] the test system is Pseudocercosporella herpotrichoides. Described as above. The format is cell-based. The note with it: final concentration 100 mg/l, 1 to 3 days; for inhibition at 100 µg/mL: Oculimacula yallundae, read-out: Inhibition Rate of Growth (suppression rate of the mold elongation, 5-step grade) P.h. The procedure: as §1, §2, §3, §4, §5, §6
Assay [6] relates to Leptosphaeria nodorum. The description is as above. The assay is classed as cell-based. The note with it: final concentration 100 mg/l, 1 to 3 days; for inhibition at 100 µg/mL: Parastagonospora nodorum, read-out: Inhibition Rate of Growth (suppression rate of the mold elongation, 5-step grade) L.n. The procedure:
as §1, §2, §3, §4, §5, §6

Assay [7] relates to Botrytis cinerea. The assay is described as above. The assay is classed as cell-based. The note with it: final concentration 100 mg/l, 1 to 3 days; for inhibition at 100 µg/mL: Botrytis cinerea, read-out: Inhibition Rate of Growth (suppression rate of the mold elongation, 5-step grade) B.c. The method, then:
as §1, §2, §3, §4, §5, §6

Assay [8] concerns Erysiphe graminis f. sp tritici. As to the kind of experiment: Preventive effect test of wheat powdery mildew (wettable powder sprayed on potted wheat, preventive value). The note with it: wettable powder suspended at 250 mg/l, sprayed on potted wheat at 100 l/10 a; morbidity investigated 9th to 14th day after inoculation. The assay is classed as in vivo. The procedure:
(Preventive Effect Test of Erysiphe graminis f. sp […])
The wettable powders obtained by using each compound were diluted with water and were suspended at a predetermined concentration (250 mg/l) and the solution was sprayed over the first to second leaf stage-wheat (variety. Agriculture and Forestry No. 64) cultivated by using a square plastic pot (size: 6.4 cm×6.4 cm) at a rate of 100 1/10 a (are).
After the sprayed leaves were air-dried, the suspension of the spore of Erysiphe graminis f. sp tritici germ sampled from the contracted leaves were sprayed and inoculated over the sprayed leaf after air-dried, the leaves were kept at 20 to 24° C. under a high-humidity condition for 24 hours, then, the leaves were subjected to still standing in a greenhouse (temperature: 20 to 24° C. and relative humidity: 20 to 70 RH). The morbidity rate was investigated based on the following investigation standard on 9th to 14th day after the inoculation and the preventive value was calculated according to the following formula 1.

Assay [9] concerns Candida albicans. Nature of the assay: Antibacterial test to Candida albicans (96-hole plate, IC80). The format is cell-based. The settings on record: cultivated at 35° C. for 72 hours, absorbance at 540 nm. The method, then:
(Antibacterial Test to Candida albicans) In the test examples, a test was performed on the antibacterial of the compounds according to the present invention to Candida albicans in the methods later described. The culture dilution train containing each compound was prepared by using a 96-hole flat-bottomed plate, and the inoculation mold solution controlled at 1 to 5×10^3 cell/ml beforehand of 10 μl was added to each hole on the plate. After the inoculation, the molds were cultivated at 35° C. for 72 hours, and the propagation of the mold was evaluated by measuring the absorbance at 540 nm. With such a test, the propagation of the mold in this case was compared with the propagation of the mold in the chemical-free test area to find the concentration of a compound where the propagation rate of the mold is suppressed by 80% as IC 80 (80% growth inhibition concentration).

Assay [10] relates to Aspergillus fumigatus. As to the kind of experiment: Antibacterial test to Aspergillus fumigatus (96-hole plate, IC80). The assay is classed as cell-based. The settings on record: YNB culture with 0.22% low melting point-agarose, 1×10^4 cell/ml, 25° C., 72 hours, absorbance at 620 nm. The procedure:
(Antibacterial Test to Aspergillus fumigatus)
In the test example, a test was performed on the antibacterial of the compounds according to the present invention to Aspergillus fumigatus in the method later described.
Aspergillus fumigatus was cultivated in Sabouraud's agar at 37° C. for 3 days, after the spores to be used for the test were formed, the spore suspension was prepared. The spore suspension was suspended in YNB culture to which a 0.22% low melting point-agarose was added so as to allow the final concentration to be 1×10^4 cell/ml, and the solution was poured into each hole on a 96-hole flat-bottomed plate. Next, the dilution trains using each of the compounds according to the present invention were added, the solution was cultivated at 25° C. for 72 hours, and the propagation rate of the mold was evaluated by measuring the absorbance at 620 nm. With such a test, the propagation rate of the mold in the chemical-free test area was compared with this case to find the concentration of the compound where the propagation rate of the mold is suppressed by 80% as IC 80 (80% growth inhibition concentration).

Molecules are shown by their SMILES.

As to `CC(C)(CNCc1ccc(Cl)nc1)Cc1ccc(OC(F)(F)F)cc1` [Compound I-45, 6-chloro-N-[2,2-dimethyl-3-(4-trifluoromethoxyphenyl)propyl]-3-pyridylmethylamine], the inhibition at 100 µg/mL in [1], in assay [4], in assay [5], in assay [6] and in assay [7] was at least 90% throughout. The “Preventive Value (%)” value in assay [2], in assay [3] and in assay [8] was 100% each time.

Take `CN(Cc1ccc(Cl)nc1)CC(C)(C)Cc1ccc(C(C)(C)C)cc1` [Compound I-18, N-[3-(4-t-butylphenyl)-2,2-dimethylpropyl]-6-chloro-N-methyl-3-pyridylmethylamine]: the inhibition at 100 µg/mL in [1], in [4], in assay [5], in [6] and in assay [7] was at least 90% each time. Besides, the “Preventive Value (%)” value in assay [8] came out at 100%.

`CC(C)(CNCc1c[nH]cn1)Cc1ccc(C(C)(C)C)cc1` [Compound I-11]: the “80% Growth Inhibition Concentration (IC80)” value in assay [9] turned out to be 150 µg/mL.

Take `Cn1cc(CNCC(C)(C)Cc2ccc(C(C)(C)C)cc2)cn1` [Compound I-6]: the “80% Growth Inhibition Concentration (IC80)” value turned out to be 9 µg/mL in [10] and 18 µg/mL in assay [9].

Turning to `CC(C)(CNCc1c[nH]cn1)Cc1ccc(F)cc1F` [Compound I-12], the “80% Growth Inhibition Concentration (IC80)” value in assay [9] amounted to 18 µg/mL.

With `CC(C)(CNCc1cnccn1)Cc1ccc(C(C)(C)C)cc1` [Compound I-4, N-[3-(4-t-butylphenyl)-2,2-dimethylpropyl]-2-pyrazylmethylamine], the “80% Growth Inhibition Concentration (IC80)” value in assay [10] and in [9] was 75 µg/mL each time.

As for `CC(CCc1cccc(OC(F)(F)F)c1)CN(C)Cc1ccc(Cl)nc1` (stereo not drawn) [Compound I-58, 6-chloro-N-[2-methyl-4-(3-trifluoromethoxyphenyl)butyl]-N-methyl-3-pyridylmethylamine], the inhibition at 100 µg/mL in assay [1], in [4], in assay [5], in assay [6] and in assay [7] was at least 90% in each case. Moreover, the “Preventive Value (%)” value in [8] is 100%.

Take `CC(C)(CNCc1ccncn1)Cc1ccc(C(C)(C)C)cc1` [Compound I-10]: the “80% Growth Inhibition Concentration (IC80)” value was 38 µg/mL in [10] and 75 µg/mL in assay [9].

As to `CC(CCc1cc(Cl)cc(Cl)c1)CN(C)Cc1ccc(Cl)nc1` (stereo not drawn) [Compound I-57], the “Inhibition Rate of Growth (suppression rate of the mold elongation, 5-step grade) V.i.” value in [1] is reported as 5 (Mold whose suppression rate of the mold elongation is • 90% or higher). In addition, the “Preventive Value (%)” value in assay [2] and in [8] was 100% each time. For the same compound, the “Inhibition Rate of Growth (suppression rate of the mold elongation, 5-step grade) M.n.” value in [4] is on record as 5 (Mold whose suppression rate of the mold elongation is • 90% or higher). For the same compound, in assay [5], the “Inhibition Rate of Growth (suppression rate of the mold elongation, 5-step grade) P.h.” value is recorded as 5 (Mold whose suppression rate of the mold elongation is • 90% or higher). The “Inhibition Rate of Growth (suppression rate of the mold elongation, 5-step grade) L.n.” value in assay [6] is listed as 5 (Mold whose suppression rate of the mold elongation is • 90% or higher). Moreover, in assay [7], the “Inhibition Rate of Growth (suppression rate of the mold elongation, 5-step grade) B.c.” value is listed as 5 (Mold whose suppression rate of the mold elongation is • 90% or higher).

On to `CC(CCc1ccc(OC(F)(F)F)cc1)CN(C)Cc1ccc(Cl)nc1` (stereo not drawn) [Compound I-60], for which the “Inhibition Rate of Growth (suppression rate of the mold elongation, 5-step grade) V.i.” value in assay [1] is listed as 5 (Mold whose suppression rate of the mold elongation is • 90% or higher). The “Preventive Value (%)” value in [3] and in assay [8] was 100% each time. For the same compound, the “Inhibition Rate of Growth (suppression rate of the mold elongation, 5-step grade) M.n.” value in [4] was 5 (Mold whose suppression rate of the mold elongation is • 90% or higher). The “Inhibition Rate of Growth (suppression rate of the mold elongation, 5-step grade) P.h.” value in assay [5] is listed as 5 (Mold whose suppression rate of the mold elongation is • 90% or higher). Further, in [6], the “Inhibition Rate of Growth (suppression rate of the mold elongation, 5-step grade) L.n.” value is recorded as 5 (Mold whose suppression rate of the mold elongation is • 90% or higher). In assay [7], the “Inhibition Rate of Growth (suppression rate of the mold elongation, 5-step grade) B.c.” value is reported as 5 (Mold whose suppression rate of the mold elongation is • 90% or higher).

Broadly, the inhibition is the change of the read-out against control, counted positive when it falls.
